Results reported in paper PMC6112376, “Comprehensive Analyses and Prioritization of Tox21 10K Chemicals Affecting Mitochondrial Function by in-Depth Mechanistic Studies” (Environmental Health Perspectives, 2018).
Where two headings read alike, the source gives them in different places.

Legend:
[1] = test system: HeLa cells expressing YFP-Parkin; assay: Parkin translocation assay; format: cell-based, human
[2] = test system: HepG2 cells
[3] = test system: hNSC; assay: MMP assay in human neural stem cells (hNSC); format: cell-based; details: for IC50: read-out: hNSC IC50 (MMP)
[4] = test system: HepG2 cells; assay: Intracellular ATP content (cell viability) assay; format: cell-based, human
[5] = test system: isolated rat liver mitochondria; assay: Oxygen consumption, Clark-type oxygen electrode; format: biochemical
[6] = test system: HepG2 cells; details: cited from earlier work; for IC50: read-out: MMP assays IC50 (µM) qHTS-HepG2
[7] = test system: rat primary hepatocytes; assay: MMP assay in rat primary hepatocytes
[8] = test system: HepG2 cells; assay: ROS-Glo hydrogen peroxide (ROS) assay; format: cell-based, human
[9] = test system: rat primary hepatocytes
[10] = test system: HepG2 cells; assay: Oxygen consumption, Seahorse XF24 analyzer; format: cell-based, human
[11] = test system: Nrf2/ARE (ARE-bla HepG2 cells); assay: ARE β-lactamase reporter gene assay; format: cell-based, human; details: for EC50: 16 h incubation, mean±SD of three experiments, read-out: ARE (HepG2) EC50; for ARE (HepG2) (efficacy): % of positive control
[12] = test system: p53 (p53-bla HCT-116 cells); assay: p53 β-lactamase reporter gene assay; format: cell-based, human
[13] = test system: mitochondrial respiratory chain complex III; format: biochemical, rat; details: at 100μM
[14] = test system: mitochondrial respiratory chain complex V; format: biochemical, rat
[15] = test system: Caenorhabditis elegans (Bristol N2); assay: C. elegans larval development and growth assay
[16] = test system: mitochondrial respiratory chain complex I; format: biochemical, rat; details: at 100μM
[17] = test system: Caenorhabditis elegans strain PE255; assay: In vivo C. elegans ATP status assay
[18] = test system: mitochondrial respiratory chain complex IV; format: biochemical, rat
[19] = target: T1, mitochondrial respiratory chain complex II (Rattus norvegicus, UniProt P21913+Q641Z9+Q6PCT8+Q920L2); assay: Respiratory chain complex II activity; format: biochemical; details: at 100μM; mean±SD of three experiments
T1 construct: Submitochondrial particles were prepared by subjecting the intact rat mitochondria, isolated as described above, to three successive freeze–thaw cycles; from tissue; host or cells: rat liver mitochondria (submitochondrial particles)

[20] = 16 h incubation, mean±SD of three experiments
[21] = % of positive control, mean±SD of three experiments

T1 sequence (Q920L2 35-656): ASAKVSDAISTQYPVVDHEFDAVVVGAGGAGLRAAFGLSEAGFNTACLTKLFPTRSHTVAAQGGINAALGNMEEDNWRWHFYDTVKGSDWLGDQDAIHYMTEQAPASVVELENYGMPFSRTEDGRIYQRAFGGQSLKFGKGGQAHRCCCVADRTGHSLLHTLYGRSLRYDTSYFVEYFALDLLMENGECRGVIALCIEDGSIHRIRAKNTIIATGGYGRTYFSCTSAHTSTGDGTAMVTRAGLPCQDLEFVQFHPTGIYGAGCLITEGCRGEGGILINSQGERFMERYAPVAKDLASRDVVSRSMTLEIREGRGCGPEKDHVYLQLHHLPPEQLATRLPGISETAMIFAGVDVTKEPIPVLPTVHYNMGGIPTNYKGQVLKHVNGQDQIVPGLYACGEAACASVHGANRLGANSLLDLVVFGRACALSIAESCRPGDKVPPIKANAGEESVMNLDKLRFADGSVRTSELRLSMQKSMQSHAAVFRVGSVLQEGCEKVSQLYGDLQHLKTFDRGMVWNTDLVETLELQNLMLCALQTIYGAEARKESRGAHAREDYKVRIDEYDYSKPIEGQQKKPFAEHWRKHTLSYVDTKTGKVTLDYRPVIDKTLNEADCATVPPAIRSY
T1 sequence (P21913 31-282): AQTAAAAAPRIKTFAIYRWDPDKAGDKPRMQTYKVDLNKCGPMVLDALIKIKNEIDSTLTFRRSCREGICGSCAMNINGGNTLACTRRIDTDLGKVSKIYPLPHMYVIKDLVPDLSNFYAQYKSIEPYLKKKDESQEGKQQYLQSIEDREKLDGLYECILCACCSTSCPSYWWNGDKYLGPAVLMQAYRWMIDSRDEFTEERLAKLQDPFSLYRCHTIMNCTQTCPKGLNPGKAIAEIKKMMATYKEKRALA
T1 sequence (Q641Z9 1-169): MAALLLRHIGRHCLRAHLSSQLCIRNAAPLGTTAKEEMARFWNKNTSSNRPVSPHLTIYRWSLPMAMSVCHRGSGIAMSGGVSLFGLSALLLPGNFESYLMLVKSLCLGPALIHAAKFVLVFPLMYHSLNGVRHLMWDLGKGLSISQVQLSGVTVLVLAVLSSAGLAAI
T1 sequence (Q6PCT8 57-159): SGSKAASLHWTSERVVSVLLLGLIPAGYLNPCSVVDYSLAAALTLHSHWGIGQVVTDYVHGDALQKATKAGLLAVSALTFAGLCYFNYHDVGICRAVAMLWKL

CC(C)c1cccc(C(C)C)c1N1C(=O)c2ccc(O)cc2C1=O [5HPP-33]
Parkin recruitment [1]: Active
HepG2 (efficacy) Galactose (MMP) [2]: 29.4±5.02 ( −106±1.68 ) %
HepG2 (efficacy) Glucose (MMP) [2]: 20.1±3.62 ( −100±2.99 ) %
MMP assays efficacy (%) HepG2 [2]: -96%
IC50 ([2]; read-out: HepG2 IC50 Galactose (MMP)): 29.4 µM
IC50 ([2]; read-out: HepG2 IC50 Glucose (MMP)): 20.1 µM
IC50 ([2]; read-out: MMP assays IC50 (µM) HepG2): 2.24 µM
hNSC (efficacy) (MMP) [3]: 12.1±1.39 ( −107±4.15 ) %
IC50 [3]: 12.1 µM
ATP (HepG2, galactose) (efficacy) [4]: 39.7±2.69 ( −66.5±7.10 ) %
ATP (HepG2, glucose) (efficacy) [4]: 51.2±14.4 ( −67.7±3.67 ) %
IC50 ([4]; read-out: ATP (HepG2, galactose) IC50): 39.7 µM
IC50 ([4]; read-out: ATP (HepG2, glucose) IC50): 51.2 µM
Potential Mechanism [5]: Uncoupler at low concentration (20 µM), and uncoupler + inhibitor at high concentration (100 µM)
I-ADP, % of control (O2 consumption rate) ([5]; 4 µM): 107 (52.5) % of control
I-sub, % of control (O2 consumption rate) ([5]; 4 µM): 123 (19.8) % of control
II-ADP, % of control (O2 consumption rate) ([5]; 4 µM): 89 (69.2) % of control
II-sub, % of control (O2 consumption rate) ([5]; 4 µM): 97 (29.6) % of control
I-ADP, % of control (O2 consumption rate) ([5]; 20 µM): 122 (60.3) % of control
I-sub, % of control (O2 consumption rate) ([5]; 20 µM): 296 (47.6) % of control
II-ADP, % of control (O2 consumption rate) ([5]; 20 µM): 95 (73.6) % of control
II-sub, % of control (O2 consumption rate) ([5]; 20 µM): 166 (50.8) % of control
I-ADP, % of control (O2 consumption rate) ([5]; 100 µM): 77 (41.0) % of control
I-sub, % of control (O2 consumption rate) ([5]; 100 µM): 331 (44.5) % of control
II-ADP, % of control (O2 consumption rate) ([5]; 100 µM): 51 (34.2) % of control
II-sub, % of control (O2 consumption rate) ([5]; 100 µM): 200 (43.4) % of control
MMP assays efficacy (%) qHTS-HepG2 [6]: -97±0%
IC50 [6]: 2.09 ± 0.87 µM
IC50 ([7]; read-out: MMP assays IC50 (µM) Rat Hepatocytes): 29.1 ± 12.2 µM
IC50 ([7]; read-out: Rat hepatocytes IC50 (MMP)): 38.3 µM
ROS (HepG2) (efficacy) [8]: 37.1±2.42 ( 37.6±1.63 ) %
EC50 ([8]; read-out: ROS (HepG2) EC50): 37.1 µM
Rat hepatocytes (efficacy) (MMP) [9]: 38.3±4.41 ( −99.8±6.08 ) %
Activity in oxygen consumption [10]: Uncoupler+inhibitor
EC50 [11]: 25.3 ± 1.74 µM
ARE (HepG2) (efficacy) [11]: 54.9±7.97%
EC50 [12, 20]: 1.73 ± 0.19 µM
p53 (HCT-116) (efficacy) ([12]; % of positive control): 76.9±9.78%

Cl.N=C1C=CC(=C(c2ccc(N)cc2)c2ccc(N)cc2)C=C1 [C.I. Basic red 9 monohydrochloride]
Complex III % inhibition [13]: 21.6±6.41 at 100μM %
Parkin recruitment ([1]; HeLa cells stably expressing YFP-Parkin, treated for 2 h): Inactive
HepG2 (efficacy) Glucose (MMP) ([2]; 5 mM glucose, % of positive control, mean±SD of three experiments): −97.1±6.48%
HepG2 (efficacy) Galactose (MMP) ([2]; 10 mM galactose, % of positive control, mean±SD of three experiments): −89.4±4.30%
MMP assays efficacy (%) HepG2 ([2]; HepG2 cells, single number from one experiment): -94%
IC50 ([2]; read-out: HepG2 IC50 Galactose (MMP), 10 mM galactose, no glucose, 1 h treatment, mean±SD of three experiments): 2.53 ± 0.46 µM
IC50 ([2]; read-out: HepG2 IC50 Glucose (MMP), 5 mM glucose, 1 h treatment, fresh re-sourced stocks, mean±SD of three experiments): 1.66 ± 0.28 µM
IC50 ([2]; read-out: MMP assays IC50 (µM) HepG2, HepG2 cells, single number from one experiment): 0.56 µM
Complex V % inhibition (activity call) [14]: Inactive
IC50 ([3]; 1 h treatment, fresh re-sourced stocks, mean±SD of three experiments): 2.55 ± 0.58 µM
hNSC (efficacy) (MMP) [3, 21]: −70.3±7.17%
EXT: mean difference in nematode size relative to plate controls ([15]; 0.5 µM): 0.03177
EXT: mean difference in nematode size relative to plate controls ([15]; 1 µM): -0.03542
EXT: mean difference in nematode size relative to plate controls ([15]; 5 µM): 0.06311
EXT: mean difference in nematode size relative to plate controls ([15]; 10 µM): 0.04374
EXT: mean difference in nematode size relative to plate controls ([15]; 25 µM): 0.1555
EXT: mean difference in nematode size relative to plate controls ([15]; 50 µM): 0.3061
EXT: mean difference in nematode size relative to plate controls ([15]; 75 µM): 1.032
EXT: mean difference in nematode size relative to plate controls ([15]; 100 µM): 1.117
LEC EXT: lowest effect concentration for extinction, a measure of nematode size ([15]; C. elegans larval growth, JT trend test, Bonferoni correction p<0.05): 50 µM
IC50 ([4]; 5 mM glucose, 40 h treatment, mean±SD of three experiments, read-out: ATP (HepG2, glucose) IC50): 9.72 ± 5.01 µM
ATP (HepG2, glucose) (efficacy) ([4]; 5 mM glucose, % of positive control): −101±8.17%
IC50 ([4]; 10 mM galactose, 40 h treatment, mean±SD of three experiments, read-out: ATP (HepG2, galactose) IC50): 6.25 ± 2.01 µM
ATP (HepG2, galactose) (efficacy) ([4]; 10 mM galactose, % of positive control): −98.4±12.9%
Complex I % inhibition [16]: 14.1±2.98 at 100μM %
I-ADP, % of control (O2 consumption rate) ([5]; 0.8 µM, glutamate/malate driven state 3 respiration, isolated rat liver mitochondria): 94 (41.0) % of control
I-sub, % of control (O2 consumption rate) ([5]; 0.8 µM, glutamate/malate driven state 4 respiration, isolated rat liver mitochondria): 100 (13.1) % of control
II-ADP, % of control (O2 consumption rate) ([5]; 0.8 µM, succinate-driven state 3 respiration, isolated rat liver mitochondria): 97 (65.8) % of control
II-sub, % of control (O2 consumption rate) ([5]; 0.8 µM, succinate-driven state 4 respiration, isolated rat liver mitochondria): 96 (20.1) % of control
I-ADP, % of control (O2 consumption rate) ([5]; 4 µM, glutamate/malate driven state 3 respiration, isolated rat liver mitochondria): 82 (35.8) % of control
I-sub, % of control (O2 consumption rate) ([5]; 4 µM, glutamate/malate driven state 4 respiration, isolated rat liver mitochondria): 92 (12.1) % of control
II-ADP, % of control (O2 consumption rate) ([5]; 4 µM, succinate-driven state 3 respiration, isolated rat liver mitochondria): 93 (63.1) % of control
II-sub, % of control (O2 consumption rate) ([5]; 4 µM, succinate-driven state 4 respiration, isolated rat liver mitochondria): 101 (21.1) % of control
I-ADP, % of control (O2 consumption rate) ([5]; 20 µM, glutamate/malate driven state 3 respiration, isolated rat liver mitochondria): 64 (27.9) % of control
I-sub, % of control (O2 consumption rate) ([5]; 20 µM, glutamate/malate driven state 4 respiration, isolated rat liver mitochondria): 106 (13.9) % of control
II-ADP, % of control (O2 consumption rate) ([5]; 20 µM, succinate-driven state 3 respiration, isolated rat liver mitochondria): 66 (44.4) % of control
II-sub, % of control (O2 consumption rate) ([5]; 20 µM, succinate-driven state 4 respiration, isolated rat liver mitochondria): 110 (22.9) % of control
I-ADP, % of control (O2 consumption rate) ([5]; 100 µM, glutamate/malate driven state 3 respiration, isolated rat liver mitochondria): 17 (9.1) % of control
I-sub, % of control (O2 consumption rate) ([5]; 100 µM, glutamate/malate driven state 4 respiration, isolated rat liver mitochondria): 94 (12.7) % of control
II-ADP, % of control (O2 consumption rate) ([5]; 100 µM, succinate-driven state 3 respiration, isolated rat liver mitochondria): 31 (21.0) % of control
II-sub, % of control (O2 consumption rate) ([5]; 100 µM, succinate-driven state 4 respiration, isolated rat liver mitochondria): 96 (20.8) % of control
effect on mitochondrial respiration (in words) ([5]; Clark-type oxygen electrode, concentrations up to 100μM): moderate inhibitory effect on state 3 respiration driven by both glutamate/malate and succinate, but not on state 4 respiration
Potential Mechanism ([5]; mitochondrial respiration in isolated rat liver mitochondria, Clark type oxygen electrode, over tested concentrations): Inhibitor
LUM: mean difference in luminescence (ATP content) relative to plate controls ([17]; 0.5 µM): 0.1703
LUM: mean difference in luminescence (ATP content) relative to plate controls ([17]; 1 µM): 0.2203
LUM: mean difference in luminescence (ATP content) relative to plate controls ([17]; 5 µM): 0.7285
LUM: mean difference in luminescence (ATP content) relative to plate controls ([17]; 10 µM): 0.8296
LUM: mean difference in luminescence (ATP content) relative to plate controls ([17]; 25 µM): 1.533
LUM: mean difference in luminescence (ATP content) relative to plate controls ([17]; 50 µM): 2.0258
LUM: mean difference in luminescence (ATP content) relative to plate controls ([17]; 75 µM): 2.358
LUM: mean difference in luminescence (ATP content) relative to plate controls ([17]; 100 µM): 2.677
LEC (lowest effect concentration), ATP assay ([17]; 24 h exposure): ≤ 10 µM
LEC LUM: lowest effect concentration for luminescence, a measure of nematode ATP content ([17]; C. elegans ATP, JT trend test, Bonferoni correction p<0.05): 5 µM
MMP assays efficacy (%) qHTS-HepG2 [6]: -95±11%
IC50 [6]: 0.08 ± 0.02 µM
Rat hepatocytes (efficacy) (MMP) [7, 21]: −90.3±2.77%
MMP assays efficacy (%) Rat Hepatocytes ([7]; rat hepatocytes, mean ± SD of three experiments): -96±23%
IC50 ([7]; read-out: MMP assays IC50 (µM) Rat Hepatocytes, rat hepatocytes, mean ± SD of three experiments): 4.11 ± 4.24 µM
IC50 ([7]; read-out: Rat hepatocytes IC50 (MMP), 1 h treatment, fresh re-sourced stocks, mean±SD of three experiments): 6.3 ± 0.43 µM
Complex IV % inhibition (activity call) [18]: Inactive
Complex II % inhibition [19]: 12.2±3.48 at 100μM %
ROS (HepG2) EC50 ([8]; 2 h treatment, mean±SD of three experiments): Inactive
Activity in oxygen consumption ([10]; Seahorse XF24, HepG2 cells, 25 mM glucose, 1, 4, 16, and 64μM): Inhibitor
EC50 [11]: 11.7 ± 7.37 µM
ARE (HepG2) (efficacy) [11]: 107±42.3%
p53 (HCT-116) EC50 [12, 20]: Inactive
